The text below walks through data of US6749336B2, “Ionic liquid temperature sensor” (priority 2002, dated 2004).

The subject of one data set is rats. As to conditions: acute toxicity; cited from earlier work.
The nature of data set [1]: decomposition temperature of ionic liquids. The class given is physicochemical. As to conditions: 1-alkyl-pyridinium ionic liquids, Table 3, citation not given.
The conditions of data set [2]: 1-alkyl-3-methylimidazolium ionic liquids, Table 2, literature citations a-g; cited from earlier work.

Read-outs that look alike come from different tables or passages of the source.

As to `CCCCCCOCn1cc[n+](C)c1.F[B-](F)(F)F` [1-hexyloxymethyl-3-methylimidazolium tetrafluoroborate], the median lethal dose (LD50) – broadly, the dose at which mortality reaches 50% – in the data set on rats was 1400 mg/kg.

Take `CCCC[n+]1cccc(C)c1.F[P-](F)(F)(F)(F)F` [[1-butyl-3-methylpyridinium] [PF6]]: the “Decomposition Temperature” value in data set [1] was 347 °C.

Regarding `CCCC[n+]1ccc(C)cc1.[Cl-]` [[1-butyl-4-methylpyridinium] Cl], the “Decomposition Temperature” value in data set [1] turned out to be 214 °C.

Regarding `CCCC[n+]1ccc(C)cc1.F[B-](F)(F)F` [[1-butyl-4-methylpyridinium] [BF4]], the “Decomposition Temperature” value in data set [1] amounted to 332 °C.

On to `CCCC[n+]1ccc(C)cc1.F[P-](F)(F)(F)(F)F` [[1-butyl-4-methylpyridinium] [PF6]], for which, in data set [1], the “Decomposition Temperature” value was 358 °C.

Turning to `CCCCCC[n+]1ccc(C)cc1.[Cl-]` [[1-hexyl-4-methylpyridinium] Cl], the “Decomposition Temperature” value in data set [1] is 218 °C.

As for `CCCCc1ccc[nH+]c1.F[P-](F)(F)(F)(F)F` [[3-n-butyl-pyridinium] [PF6]], in data set [1], the “Decomposition Temperature” value was 125-444 °C.

For `F[P-](F)(F)(F)(F)F.c1ccc(CCCc2cc[nH+]cc2)cc1` [[4-phenylpropyl-pyridinium] [PF6]], the “Decomposition Temperature” value in data set [1] was 163-474 °C.

Consider `CCC[n+]1ccn(C)c1.[Cl-]` [[C3mim] Cl], for which the “Decomposition Temperature” value in data set [2] was 282 °C.

As for `CCCn1cc[n+](C)c1.F[P-](F)(F)(F)(F)F` [[C3mim] [PF6]], the “Decomposition Temperature” value in data set [2] is 335 °C.

`CCCCn1cc[n+](C)c1.[Cl-]` [[C4mim] Cl]: in data set [2], the “Decomposition Temperature” value was 254 °C.

As for `CCCCn1cc[n+](C)c1.[I-]` [[C4mim] I], the “Decomposition Temperature” value in data set [2] was 265 °C.

`CCCCn1cc[n+](C)c1.F[P-](F)(F)(F)(F)F` [[C4mim] [PF6]]: in data set [2], the “Decomposition Temperature” value was 349 °C.

As to `CCCCCCn1cc[n+](C)c1.[Cl-]` [[C6mim] Cl], the “Decomposition Temperature” value in data set [2] was 253 °C.

For the molecule `CCCCCCn1cc[n+](C)c1.F[P-](F)(F)(F)(F)F` [[C6mim] [PF6]], in data set [2], the “Decomposition Temperature” value is 417 °C.

As for `CCCCCCCCn1cc[n+](C)c1.[Cl-]` [[C8mim] Cl], the “Decomposition Temperature” value in data set [2] was 243 °C.
